From patent US20240245770A1, “COMPOSITIONS AND METHODS FOR TREATING NEUROMUSCULAR DISORDERS” (The Regents of the University of California, priority 2019, published 2024)

Test system: serum cytokine/chemokine/growth factor/ligands of ALS patient
Assay: Serum Luminex, before and after NAC treatment
Assay type: in vivo, human
Method: (§1) Serum Luminex. Serum from patients were used to determine the levels of cytokine/chemokine/growth factor/ligands secretion using multiplex luminex assay. Scatter plot was prepared using the levels of cytokine/chemokine/growth factor/ligands in serum obtained at different dates from patients as compared to controls.
Serum Luminex. Serum from patients were used to determine the levels of cytokine/chemokine/growth factor/ligands secretion using multiplex luminex assay.
as §1

[1] = H110 RS post NAC (second line, continues Table 138A)

Q: What does the source list for `CC(=O)N[C@@H](CS)C(=O)O` [NAC, N-Acetyl-Cysteine]?
A: IFN-g, ALS patient compared to healthy twin (41 plex after NAC): 1.6; IL-2, ALS patient compared to healthy twin (41 plex after NAC): 0.9; IL-4, ALS patient compared to healthy twin (41 plex after NAC): 1.1; IL-10, ALS patient compared to healthy twin (41 plex after NAC): 0.95; IL-12 p70, ALS patient compared to healthy twin (41 plex after NAC): 1.3; IL-13, ALS patient compared to healthy twin (41 plex after NAC): 0.99; TNF-a, ALS patient compared to healthy twin (41 plex after NAC): 2.2; Franktalkine (After NAC, Ave JC 4/5 to 6/24): 34.8; GM-CSF (After NAC, Ave JC 4/5 to 6/24): 68.8; IL-4 (After NAC, Ave JC 4/5 to 6/24): 12.8; IL-23 (After NAC, Ave JC 4/5 to 6/24): 125.6; ITAC (After NAC, Ave JC 4/5 to 6/24): 13.34; MIP-1b (After NAC, Ave JC 4/5 to 6/24): 21.6; IFNg (Ave JC 4/5 to 6/24): 7.25; IL-1b (Ave JC 4/5 to 6/24): 0.82; IL-2 (Ave JC 4/5 to 6/24): 1.45; IL-6 (Ave JC 4/5 to 6/24): 1.9; IL-7 (Ave JC 4/5 to 6/24): 5.7; IL-8 (Ave JC 4/5 to 6/24): 4.4; IL-10 (Ave JC 4/5 to 6/24): 7.8; IL-12p70 (Ave JC 4/5 to 6/24): 2; IL-13 (Ave JC 4/5 to 6/24): 4.32; IL-17A (Ave JC 4/5 to 6/24): 4; IL-21 (Ave JC 4/5 to 6/24): 0.7; MIP-1a (Ave JC 4/5 to 6/24): 11.5; MIP-3a (Ave JC 4/5 to 6/24): 8.1; TNFa (Ave JC 4/5 to 6/24): 8.2 pg/mL; Franktalkine (Ave JC sera for NAC infusion): 34.8 pg/mL; GM-CSF (Ave JC sera for NAC infusion): 68.8 pg/mL; IFNg (Ave JC sera for NAC infusion): 7.25 pg/mL; IL-1b (Ave JC sera for NAC infusion): 0.82 pg/mL; IL-2 (Ave JC sera for NAC infusion): 1.45 pg/mL; IL-4 (Ave JC sera for NAC infusion): 12.8 pg/mL; IL-6 (Ave JC sera for NAC infusion): 1.9 pg/mL; IL-7 (Ave JC sera for NAC infusion): 5.7 pg/mL; IL-8 (Ave JC sera for NAC infusion): 4.4 pg/mL; IL-10 (Ave JC sera for NAC infusion): 7.8 pg/mL; IL-12p70 (Ave JC sera for NAC infusion): 2 pg/mL; IL-13 (Ave JC sera for NAC infusion): 4.32 pg/mL; IL-17A (Ave JC sera for NAC infusion): 4 pg/mL; IL-21 (Ave JC sera for NAC infusion): 0.7 pg/mL; IL-23 (Ave JC sera for NAC infusion): 125.6 pg/mL; ITAC (Ave JC sera for NAC infusion): 13.34 pg/mL; MIP-1a (Ave JC sera for NAC infusion): 11.5 pg/mL; MIP-1b (Ave JC sera for NAC infusion): 21.6 pg/mL; MIP-3a (Ave JC sera for NAC infusion): 8.1 pg/mL; TNFa (Ave JC sera for NAC infusion): 8.2 pg/mL; CMD [1]: 1391 pg/mL; GRO [1]: 2246 pg/mL; IFNg [1]: 20.14 pg/mL; IL-1Ra [1]: 247.51 pg/mL; IL-1a [1]: 43.39 pg/mL; IL-1b [1]: 6.64 pg/mL; IL-3 [1]: 7.88 pg/mL; IL-4 [1]: 53.81 pg/mL; IL-5 [1]: 38.12 pg/mL; IL-6 [1]: 23.49 pg/mL; IL-7 [1]: 21.7 pg/mL; IL-8 [1]: 16.64 pg/mL; IL-9 [1]: 16.88 pg/mL; IL-10 [1]: 97.95 pg/mL; IL-12p40 [1]: 82.26 pg/mL; IL-12p70 [1]: 13.65 pg/mL; IL-13 [1]: 33.66 pg/mL; IL-15 [1]: 23.97 pg/mL; IL-17a [1]: 12.34 pg/mL; IP-10 [1]: 646.43 pg/mL; L-2 [1]: 14.54 pg/mL; MCP1 [1]: 846.7 pg/mL; MCP3 [1]: 16.88 pg/mL; MIP1a [1]: 17.37 pg/mL; MIP1b [1]: 34.07 pg/mL; PDGF-AB/BB [1]: 23823 pg/mL; PDGFaa [1]: 8654 pg/mL; Rantes [1]: 9480 pg/mL
